Seven compounds from the supplement of paper PMC11061612 can be followed below.

Assay in all cases: combination Emax (second highest fraction inhibited in the dose matrix, 72 h); higher = more inhibition; extreme values may be limits of the assay
In assay [1] the test system is A375 (Melanoma). The essentials:
(§1)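 Cell lines grown in DMEM/F12 or RPMI with 10% FBS were plated in 1536-well plates and held 24 hours at 37°C, 5% CO2 before 72 hours of exposure to two-drug dose matrices, with DMSO typically at 0.2%. CellTiter-Glo 2.0 luminescence gave viability, which was converted to inhibition. Vehicle wells were set to 0 and blank wells to 1. Combination Emax is the second-highest inhibition in the matrix, and Bliss excess is the observed combination effect minus the expected EA + EB − EA·EB, where EA and EB are the single-agent effects.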

Assay [2] deals with BT-474 (Breast Carcinoma). In outline: as §1
Assay [3] has as its system CAL-85-1 (Breast Carcinoma). In outline:
as §1

In assay [4] the test system is COR-L105 (Lung Adenocarcinoma). The essentials:
as §1

For assay [5], the system named is GRANTA-519 (B-Cell Non-Hodgkin's Lymphoma). The essentials: as §1
For assay [6], the system named is HT-1197 (Bladder Carcinoma). In outline:
as §1

The subject of assay [7] is HT-144 (Melanoma). The essentials:
as §1

Assay [8] concerns KNS-62 (Squamous Cell Lung Carcinoma). In outline: as §1
Assay [9] has as its system MG-63 (Osteosarcoma). The essentials:
as §1

The test system of assay [10] is NCI-H1648 (Lung Adenocarcinoma). The essentials:
as §1

Assay [11] concerns NCI-H2170 (Squamous Cell Lung Carcinoma). In outline:
as §1

Assay [12] concerns NCI-H2452 (Mesothelioma). The essentials:
as §1

Assay [13] concerns OVKATE (Ovarian Carcinoma). In outline:
as §1

Assay [14] concerns SBC-3 (Small Cell Lung Carcinoma). In outline:
as §1

Assay [15] has as its system SBC-5 (Small Cell Lung Carcinoma). In outline: as §1
Assay [16] concerns SCC90 (Head and Neck Carcinoma). In outline: as §1
Assay [17] has as its system SK-N-DZ (Neuroblastoma). In outline:
as §1

The subject of assay [18] is SNU-1 (Gastric Carcinoma). In outline: as §1
For assay [19], the system named is SUP-HD1 (Hodgkin's Lymphoma). In outline:
as §1

For assay [20], the system named is SW1463 (Colorectal Carcinoma). The essentials: as §1

As for `CC1(C)CCC(CN2CCN(c3ccc(C(=O)NS(=O)(=O)c4ccc(NCC5CCOCC5)c([N+](=O)[O-])c4)c(Oc4cnc5[nH]ccc5c4)c3)CC2)=C(c2ccc(Cl)cc2)C1` [Venetoclax] + CN(C)CCCOc1ccc(-c2ccc3ncc4c(c3c2)n(C2CCOCC2)c(=O)n4C)cn1 [AZD0156] (first compound max 1 µM, 7x7, partner max 1 µM), the “combination Emax” value in assay [1] was 0.216; in assay [2], 0.175; in [3] it was 0.136; in assay [4], 0.186; in assay [5] it was 0.388; in assay [6], 0.198. Moreover, the “combination Emax” value in assay [7] is 0.217; in [8], 0.262; in [9], 0.217; in assay [10], 0.267; in [11] it was 0.243; in assay [12] it was 0.277. Moreover, the “combination Emax” value amounted to 0.208 in assay [13]; 0.766 in assay [14]; 0.163 in assay [15]; 0.324 in assay [16]; 0.256 in assay [17]; 0.225 in assay [18]. The “combination Emax” value in assay [19] was determined as 0.761; in assay [20] it was 0.0973.
With `COc1nnc2ccc(N3CCC(c4ccc(OCCN5CCN(C)C(=O)[C@H]5C)cc4)CC3)nn12` [AZD5153] + CCN(CCO)CCCOc1ccc2c(Nc3cc(CC(=O)Nc4cccc(F)c4)[nH]n3)ncnc2c1 [AZD2811] (first compound max 1 µM, 7x7, partner max 1 µM), the “combination Emax” value in assay [1] amounted to 0.562; in assay [2], 0.368; in [3] it was 0.657; in [4] it was 0.426; in assay [5], 0.56; in assay [6] it was 0.742. The “combination Emax” value in assay [7] was 0.48; in assay [8], 0.596; in assay [9], 0.694; in assay [10] it was 0.669; in assay [11] it was 0.717; in assay [12] it was 0.433. In addition, the “combination Emax” value was found to be 0.263 in assay [13]; 0.781 in assay [14]; 0.718 in [15]; 0.452 in assay [16]; 0.8 in [17]; 0.653 in [18]. For the same compound, the “combination Emax” value was determined as 0.704 in assay [19] and 0.563 in assay [20].
For `CC1(C)CCC(CN2CCN(c3ccc(C(=O)NS(=O)(=O)c4ccc(NCC5CCOCC5)c([N+](=O)[O-])c4)c(Oc4cnc5[nH]ccc5c4)c3)CC2)=C(c2ccc(Cl)cc2)C1` [Venetoclax] + Cn1cnc2c(F)c(Nc3ccc(Br)cc3Cl)c(C(=O)NOCCO)cc21 [Selumetinib] (first compound max 1 µM, 7x7, partner max 3 µM), the “combination Emax” value worked out at 0.686 in assay [1]; 0.0915 in [2]; 0.356 in assay [3]; 0.362 in assay [4]; 0.323 in assay [5]; 0.254 in [6]. The “combination Emax” value in [7] was 0.654; in [8], 0.253; in assay [9] it was 0.148; in [10], 0.496; in [11], 0.107; in [12], 0.181. Besides, the “combination Emax” value stood at 0.217 in assay [13]; 0.605 in assay [14]; 0.18 in assay [15]; 0.726 in assay [16]; 0.246 in assay [17]; 0.221 in [18]. The figures for the “combination Emax” value in assay [19] and in assay [20] were 0.809 and 0.352, respectively.
For `Cn1cnc2c(F)c(Nc3ccc(Br)cc3Cl)c(C(=O)NOCCO)cc21` [Selumetinib] + C=CCn1c(=O)c2cnc(Nc3ccc(N4CCN(C)CC4)cc3)nc2n1-c1cccc(C(C)(C)O)n1 [AZD1775] (first compound max 10 µM, partner max 1 µM), the “combination Emax” value came out at 0.755 in [1]; 0.346 in assay [2]; 0.474 in assay [3]; 0.534 in [4]; 0.869 in assay [5]; 0.507 in assay [6]. For the same compound, the “combination Emax” value in [7] worked out at 0.812; in assay [8], 0.434; in assay [9] it was 0.394; in assay [10], 0.621; in assay [11], 0.699; in assay [12], 0.547. Also, the “combination Emax” value in [13] worked out at 0.173; in [14], 0.269; in assay [15], 0.514; in [16], 0.825; in [17] it was 0.971; in assay [18], 0.766. Also, the results for the “combination Emax” value in assay [19] and in assay [20] were 0.727 and 0.665, respectively.
Regarding `CC(=O)Nc1cccc(-n2c(=O)n(C3CC3)c(=O)c3c(Nc4ccc(I)cc4F)n(C)c(=O)c(C)c32)c1` [Trametinib] + Cc1nc(-c2cn3c(n2)-c2ccc(-c4cnn(C(C)(C)C(N)=O)c4)cc2OCC3)n(C(C)C)n1 [Taselisib] (first compound max 1 µM, 7x7, partner max 10 µM), the “combination Emax” value in [1] came out at 0.935; in assay [2] it was 0.841; in [3], 0.975; in assay [4], 0.9; in assay [5] it was 0.189; in assay [6], 0.76. The “combination Emax” value is 1 in assay [7]; 0.827 in [8]; 0.674 in assay [9]; 1 in [10]; 0.919 in assay [11]; 0.617 in assay [12]. Besides, the “combination Emax” value was 0.583 in assay [13]; 0.703 in assay [14]; 0.784 in assay [15]; 0.997 in assay [16]; 0.521 in [17]; 0.769 in [18]. The “combination Emax” value is 0.616 in [19] and 0.785 in assay [20].
As to `COc1nnc2ccc(N3CCC(c4ccc(OCCN5CCN(C)C(=O)[C@H]5C)cc4)CC3)nn12` [AZD5153] + C=CCn1c(=O)c2cnc(Nc3ccc(N4CCN(C)CC4)cc3)nc2n1-c1cccc(C(C)(C)O)n1 [AZD1775] (first compound max 1 µM, partner max 1 µM), the “combination Emax” value in [1] amounted to 0.637; in assay [2], 0.526; in assay [3], 0.598; in [4] it was 0.474; in assay [5], 0.874; in assay [6], 0.724. Besides, the “combination Emax” value was 0.651 in assay [7]; 0.542 in [8]; 0.671 in assay [9]; 0.737 in assay [10]; 0.735 in assay [11]; 0.605 in assay [12]. For the same compound, the “combination Emax” value in assay [13] came to 0.344; in [14], 0.767; in [15] it was 0.846; in [16], 0.714; in [17] it was 0.987; in [18], 0.737. Moreover, the “combination Emax” value in [19] amounted to 0.783; in assay [20], 0.478.
Regarding `COc1cccc2c1C(=O)c1c(O)c3c(c(O)c1C2=O)C[C@@](O)(C(=O)CO)C[C@@H]3O[C@H]1C[C@H](N)[C@H](O)[C@H](C)O1` [Doxorubicin] + Cc1cc2ncnn2cc1Nc1ncc2c(n1)n(C1CCOCC1)c(=O)n2C [AZD7648] (first compound max 1 µM, 7x7, partner max 10 µM), the “combination Emax” value worked out at 0.949 in assay [1]; 0.197 in [2]; 0.634 in assay [3]; 0.473 in assay [4]; 0.856 in assay [5]; 0.735 in assay [6]. Besides, the “combination Emax” value in [7] was 0.583; in assay [8] it was 0.484; in assay [9], 0.896; in assay [10], 0.598; in assay [11], 0.891; in [12], 0.462. In addition, the “combination Emax” value in assay [13] amounted to 0.282; in assay [14], 0.968; in [15], 0.77; in [16], 0.603; in assay [17], 0.613; in assay [18], 0.848. Besides, the “combination Emax” value in assay [19] is 0.878; in assay [20] it was 0.196.
